Assay results published in patent US20060178307A1, “Modulation of NMDA receptor currents via orexin receptor and/or CRF receptor” (priority 2005, published 2006).
Where no end group is shown, it is not given here.

Experiments:
locomotor activity [1] = assay: Locomotor sensitization to cocaine, i.p. OXR1 antagonist, open field; format: in vivo, Sprague-Dawley rats
Protocol: To determine if orexin signaling plays a role in behavioral sensitization to cocaine, either the OXR1 antagonist SB 334867 (10 mg/kg, i.p.) or vehicle was injected 15 min prior to injecting cocaine (15 mg/kg, i.p) or saline (0.9%), and then the rats were placed in an open field chamber to measure locomotor activity for 1 hour each day for 5 days.
Therefore, to determine if expression of cocaine sensitization requires release of orexin acting at the OXR1 receptor, the OXR1 antagonist SB 334867 (10 mg/kg) was injected with cocaine (15 mg/kg) on day 6 into either cocaine-sensitized or saline-treated rats.
Male Sprague-Dawley Rats (P21-P30; Charles River, N.C.) were singly housed with food and water available ad libitum. A 12 hr light/dark cycle was used, with the lights on at 7:00 A.M. All cocaine injections and behavioral testing were performed during the light cycle for consecutive days. The four treatment groups consisted of rats given 5 daily i.p. injections of SB 334867 (10 mg/kg) 15 min preceding i.p. injection of cocaine (15 mg/kg) or saline (0.9% NaCl), or i.p. injections of vehicle (10% DMSO and 25% β-hydroxy cyclodextrin in saline) 15 min preceding i.p. injection of cocaine or saline. All animals were habituated to the photocell boxes (Med Associates, St. Albans, Vt.) for 2 hours prior to the start of the experiment. All animals were further habituated to the photocell boxes for 30 min prior to 60 min testing session. Locomotor activity was measured in 17″×17″ chambers lined with three 16-beam I/R arrays. A 50 ms scanning rate was used for measurement of beams broken. Distance traveled was measured using Open Field Activity Software (Med Associates, Inc) and analyzed for estimates of locomotion based on the movement of a given distance and resting delay (movement in a given period of time).

locomotor activity [2] = assay: Locomotor sensitization to cocaine, intra-VTA OXR1 antagonist, 7-day paradigm; format: in vivo, Sprague-Dawley rats
Protocol: Male Sprague-Dawley rats (250 grams) were implanted with bilateral cannulae directed at the VTA (AP, −5.2; ML, ±0.5, DV −8.0). Following recovery from surgery, animals were tested in a cocaine sensitization assay similar to that used for systemic administration of the OXR1 antagonist, but with two changes: a 7-day sensitization paradigm was used, and the OXR1 antagonist SB 334867 was microinjected directly into the VTA (6 μg/hemisphere in 300 nL solution composed of 10% DMSO in water). All other methods for habituation and data collection were identical to that described above. Rats were deeply anesthetized with pentobarbital, and perfused with a 10% formaldehyde solution. Brains were cryoprotected in 25% sucrose, 40 μm coronal sections were cut on a freezing microtome, and sections were mounted, dried and coverslipped. Injection sites were located under a light microscope and recorded on atlas figures adapted from Paxinos and Watson (1997).

AMPAR-induced current = assay: Holding current change on bath-applied AMPA with cyclothiazide; format: cell-based, rat
NMDA-induced current = assay: Holding current change on bath-applied NMDA; format: cell-based, rat; conditions: NMDA 50 μM 30 sec
Protocol: As a final test to determine at what time point after orexin treatment NMDARs were altered, NMDA (50 μM, 30 sec) was bath-applied, and the change in holding current was recorded. There was a significant increase in NMDA-induced current 15 min after orexin A (100 nM) application (orexin A: 344±27 pA, n=7; control: 245±43, n=9, p<0.05, FIG. 7H), but not after 3-4 hours (orexin A: 305±59, n=6; p>0.05, FIG. 7I).

Row | Molecule | baseline locomotor activity (locomotor activity [1]; 10 mg/kg i.p. with saline, n=13) | development of sensitization to cocaine (locomotor activity [1]; 10 mg/kg i.p., 5 days) | locomotor activity on day 6 (expression of cocaine sensitization) (locomotor activity [1]; 10 mg/kg injected with cocaine on day 6, n=7 in each group) | distance traveled on day 5 (locomotor activity [1]; SB 334867 10 mg/kg i.p. 15 min prior to cocaine 15 mg/kg i.p.) | locomotor activity on day 1 (locomotor activity [1]; cocaine-treated rats given SB334867 10 mg/kg, n=11) | development of locomotor sensitization to cocaine (locomotor activity [2]; daily intra-VTA 6 μg/hemisphere prior to cocaine 15 mg/kg, 7 days) | mean locomotor distance on day 7 (locomotor activity [2]; intra-VTA OXR1 antagonist 6 μg/hemisphere + cocaine) | expression of pre-existing cocaine sensitization (locomotor activity [2]; single intra-VTA injection) | AMPAR-induced current (AMPAR-induced current; AMPA 2 μM 30 sec + cyclothiazide 100 μM, 15 min after orexin A 100 nM, n=5) | AMPAR-induced current (AMPAR-induced current; AMPA 2 μM + cyclothiazide, 3-4 hours after orexin A 100 nM, n=6) | NMDA-induced current (NMDA-induced current; 3-4 hours after orexin A, n=6) | NMDA-induced current (NMDA-induced current; 15 min after orexin A 100 nM, n=7)
1 | Cc1nc2ccc(NC(=O)Nc3ccnc4cccnc34)cc2o1.Cl [SB 334867, 1-(2-methylbenzoxazol-6-yl)-3-[1,5]naphthyridin-4-yl urea hydrochloride] | did not reduce | significantly blocked | not significantly reduced | 8504±2564 cm | 3579±1079 cm | abolished | 19274±4559 cm | did not affect | – | – | – | –
2 | orexin A: neuropeptide synthesized in neurons of the LH; orexin receptor agonist selective for the OXR1 receptor (QPLPDCCRQKTCSCRLYELLHGAGNHAAGILTL; ends and bridges not checked; cysteine pairing not given here; UniProt O43612 34-66, looked up) | – | – | – | – | – | – | – | – | −243±79 pA | −367±63 pA | 305±59 pA | 344±27 pA
